Measured values from US7517874B2 (priority 2007, dated 2009).
Where two headings read alike, the source gives them in different places.

Legend:
[1] = biological target: human CB1 receptor (hCB1) (Homo sapiens, UniProt P21554); assay: cell-based; format: cell-based; details: for +/− HCB1: agonist or inverse agonist at hCB1
Procedure, shortened: (§1)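 First, cells in IBMX-containing HEPES-buffered HBSS are raised to elevated cAMP with 2-8 μM NKH-477 for 30 min. Data are normalised to the forskolin and forskolin + 1 μM CP55,940 controls.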

rat CB2 receptor (rCB2) = biological target: T1, rat CB2 receptor (rCB2) (Rattus norvegicus, UniProt Q9QZN9); assay: cell-based; format: cell-based; details: for +/− RCB2: agonist or inverse agonist at rCB2
T1 sequence (Q9QZN9 1-360): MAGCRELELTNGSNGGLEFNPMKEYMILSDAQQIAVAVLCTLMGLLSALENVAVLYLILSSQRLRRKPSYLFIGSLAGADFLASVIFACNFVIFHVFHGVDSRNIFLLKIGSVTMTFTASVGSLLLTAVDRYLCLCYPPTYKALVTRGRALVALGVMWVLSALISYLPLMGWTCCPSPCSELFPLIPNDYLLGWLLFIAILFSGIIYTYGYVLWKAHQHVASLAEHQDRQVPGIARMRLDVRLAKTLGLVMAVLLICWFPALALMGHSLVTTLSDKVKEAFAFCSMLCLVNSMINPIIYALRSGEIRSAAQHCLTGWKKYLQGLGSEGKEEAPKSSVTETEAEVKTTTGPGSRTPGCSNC
Procedure, shortened: as §1

[2] = groups >100 nM-10 μM and >10 μM, cAMP, CHO-K1 hCB1, read-out: EC50 HCB1

Chain of human CB1 receptor (hCB1) (P21554 whole entry): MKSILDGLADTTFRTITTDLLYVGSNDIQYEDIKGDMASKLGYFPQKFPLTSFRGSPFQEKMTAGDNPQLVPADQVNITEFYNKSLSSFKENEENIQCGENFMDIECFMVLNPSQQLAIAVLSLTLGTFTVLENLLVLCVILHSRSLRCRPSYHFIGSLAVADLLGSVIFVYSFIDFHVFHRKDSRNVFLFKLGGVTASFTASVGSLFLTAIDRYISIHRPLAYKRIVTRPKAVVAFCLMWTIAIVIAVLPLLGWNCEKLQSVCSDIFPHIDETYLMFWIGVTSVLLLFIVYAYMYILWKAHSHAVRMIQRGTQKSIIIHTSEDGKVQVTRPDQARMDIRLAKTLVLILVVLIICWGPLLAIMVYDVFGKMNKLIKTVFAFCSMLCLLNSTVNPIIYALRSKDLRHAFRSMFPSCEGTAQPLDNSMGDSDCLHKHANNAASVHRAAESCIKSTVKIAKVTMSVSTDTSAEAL

| SMILES | EC50 [1] [nM] | +/− RCB2 (rat CB2 receptor (rCB2)) | +/− HCB1 [1] | EC50 [1, 2] [nM] | EC50 (rat CB2 receptor (rCB2)) [µM] |
| --- | --- | --- | --- | --- | --- |
| CNC(=O)[C@H](CC(C)C)NC(=O)c1nc(-c2ccc(C(F)(F)F)cc2F)n2c1CN(C)CCC2 [Compound 533, (S)-3-(2-fluoro-4-(trifluoromethyl)phenyl)-8-methyl-N-(4-methyl-1-(methylamino)-1-oxopentan-2-yl)-6,7,8,9-tetrahydro-5H-imidazo[1,5-a][1,4]diazepine-1-carboxamide] | > 10000 | + |  |  |  |
| CNC(=O)[C@@H](NC(=O)c1nc(C(C)C(C)C)n2c1CN(C)CCC2)C(C)(C)C (stereo partly drawn) [Compound 507, N-((S)-3,3-dimethyl-1-(methylamino)-1-oxobutan-2-yl)-8-methyl-3-(3-methylbutan-2-yl)-6,7,8,9-tetrahydro-5H-imidazo[1,5-a][1,4]diazepine-1-carboxamide] |  | + | + |  |  |
| CC(C)CCNC(=O)c1nc(-c2ccc(Cl)cc2)n2c1CNCC2 [Compound 42, 3-(4-chlorophenyl)-N-isopentyl-5,6,7,8-tetrahydroimidazo[1,5-a]pyrazine-1-carboxamide] |  | − |  | > 10000 |  |
| CNC(=O)[C@@H](NC(=O)c1nc(CC(C)C)n2c1CN(C)CC2)C(C)(C)C [Compound 306, (S)-N-(3,3-dimethyl-1-(methylamino)-1-oxobutan-2-yl)-3-isobutyl-7-methyl-5,6,7,8-tetrahydroimidazo[1,5-a]pyrazine-1-carboxamide] | > 10000 | + |  |  |  |
| CNC(=O)[C@@H](NC(=O)c1nc(-c2cccc3cccnc23)n2c1CN(C)CCC2)C(C)(C)C [Compound 444] | > 10000 | − |  |  |  |
| CNC(=O)[C@H](CC(C)(C)C)NC(=O)c1nc(-c2cc(F)ccc2F)n2c1CN(C)CCC2 [Compound 553, (S)-3-(2,5-difluorophenyl)-N-(4,4-dimethyl-1-(methylamino)-1-oxopentan-2-yl)-8-methyl-6,7,8,9-tetrahydro-5H-imidazo[1,5-a][1,4]diazepine-1-carboxamide] | > 10000 |  |  |  | > 10 |
| CNC(=O)[C@@H](NC(=O)c1nc(-c2ccc(Cl)cc2)n2c1CNCC2)C(C)(C)C [Compound 9, (S)-3-(4-chlorophenyl)-N-(3,3-dimethyl-1-(methylamino)-1-oxobutan-2-yl)-5,6,7,8-tetrahydroimidazo[1,5-a]pyrazine-1-carboxamide] | > 10000 | − |  |  |  |
| CNC(=O)[C@@H](NC(=O)c1nc(CCCCO)n2c1CN(C)CCC2)C(C)(C)C [Compound 508, (S)-N-(3,3-dimethyl-1-(methylamino)-1-oxobutan-2-yl)-3-(4-hydroxybutyl)-8-methyl-6,7,8,9-tetrahydro-5H-imidazo[1,5-a][1,4]diazepine-1-carboxamide] |  |  | + |  | > 10 |
| CNC(=O)[C@@H](NC(=O)c1nc(CCCN2CCCC2)n2c1CN(C)CCC2)C(C)(C)C [Compound 502, (S)-N-(3,3-dimethyl-1-(methylamino)-1-oxobutan-2-yl)-8-methyl-3-(3-(pyrrolidin-1-yl)propyl)-6,7,8,9-tetrahydro-5H-imidazo[1,5-a][1,4]diazepine-1-carboxamide] | > 10000 | + |  |  |  |
| CNC(=O)[C@@H](NC(=O)c1nc(-c2ccccc2)n2c1CN(S(=O)(=O)c1ccccc1[N+](=O)[O-])CC2)C(C)(C)C [Compound 97, (S)-N-(3,3-dimethyl-1-(methylamino)-1-oxobutan-2-yl)-7-(2-nitrophenylsulfonyl)-3-phenyl-5,6,7,8-tetrahydroimidazo[1,5-a]pyrazine-1-carboxamide] | > 10000 | − |  |  |  |
| CNC(=O)[C@@H](NC(=O)c1nc(-c2ccccc2Cl)n2c1CN(C)CC2)C(C)(C)C [Compound 253, (S)-3-(2-chlorophenyl)-N-(3,3-dimethyl-1-(methylamino)-1-oxobutan-2-yl)-7-methyl-5,6,7,8-tetrahydroimidazo[1,5-a]pyrazine-1-carboxamide] | > 10000 | + |  |  |  |
| CCN1CCn2c(-c3ccc(Cl)cc3)nc(C(=O)NCCC(C)C)c2C1 [Compound 158, 3-(4-chlorophenyl)-7-ethyl-N-isopentyl-5,6,7,8-tetrahydroimidazo[1,5-a]pyrazine-1-carboxamide] | > 10000 | − |  |  |  |
| CNC(=O)[C@@H](NC(=O)c1nc(-c2ccccc2C(F)(F)F)n2c1CN(C)CC2)C(C)(C)C [Compound 255, (S)-N-(3,3-dimethyl-1-(methylamino)-1-oxobutan-2-yl)-7-methyl-3-(2-(trifluoromethyl)phenyl)-5,6,7,8-tetrahydroimidazo[1,5-a]pyrazine-1-carboxamide] | > 10000 | + |  |  |  |
| CNC(=O)[C@@H](NC(=O)c1nc(-c2ccc(N(C)C)cc2)n2c1CN(C)CCC2)C(C)(C)C [Compound 381, (S)-N-(3,3-dimethyl-1-(methylamino)-1-oxobutan-2-yl)-3-(4-(dimethylamino)phenyl)-8-methyl-6,7,8,9-tetrahydro-5H-imidazo[1,5-a][1,4]diazepine-1-carboxamide] | > 10000 | − |  |  |  |
| CNC(=O)[C@@H](NC(=O)c1nc(-c2ccccc2C(F)(F)F)n2c1CN(C)CCC2)C(C)(C)C [Compound 399, (S)-N-(3,3-dimethyl-1-(methylamino)-1-oxobutan-2-yl)-8-methyl-3-(2-(trifluoromethyl)phenyl)-6,7,8,9-tetrahydro-5H-imidazo[1,5-a][1,4]diazepine-1-carboxamide] | > 10000 | + |  |  |  |
| CC(C)(C)C(=O)N1CCn2c(-c3ccccc3)nc(C(=O)NC3C4(C)CCC(C4)C3(C)C)c2C1 (stereo not shown) [Compound 123, 3-phenyl-7-pivaloyl-N-(1,3,3-trimethylbicyclo[2.2.1]heptan-2-yl)-5,6,7,8-tetrahydroimidazo[1,5-a]pyrazine-1-carboxamide] | > 10000 | − |  |  |  |
| CC(C)CN1CCn2c(-c3ccccc3)nc(C(=O)N[C@@H](C)C(C)(C)C)c2C1 [Compound 53, (S)-N-(3,3-dimethylbutan-2-yl)-7-isobutyl-3-phenyl-5,6,7,8-tetrahydroimidazo[1,5-a]pyrazine-1-carboxamide] | > 10000 | − |  |  |  |
| CC(C)CN1CCn2c(-c3ccccc3)nc(C(=O)N3CCOCC3)c2C1 [Compound 70, (7-isobutyl-3-phenyl-5,6,7,8-tetrahydroimidazo[1,5-a]pyrazin-1-yl)(morpholino)methanone] |  | − |  | > 10000 |  |
| CC(C)C[C@H](NC(=O)c1nc(-c2ccc(F)cc2F)n2c1CN(C)CCC2)C(N)=O [Compound 568, (S)-N-(1-amino-4-methyl-1-oxopentan-2-yl)-3-(2,4-difluorophenyl)-8-methyl-6,7,8,9-tetrahydro-5H-imidazo[1,5-a][1,4]diazepine-1-carboxamide] |  | + | + |  |  |
| CNC(=O)[C@@H](NC(=O)c1nc(-c2ccc(F)c(C(=O)O)c2)n2c1CN(C)CCC2)C(C)(C)C [Compound 411] | > 10000 |  |  |  | > 10 |
| CNC(=O)[C@@H](NC(=O)c1nc(-c2ccccc2)n2c1CN(c1cncc(Cl)n1)CC2)C(C)(C)C [Compound 300, (S)-7-(6-chloropyrazin-2-yl)-N-(3,3-dimethyl-1-(methylamino)-1-oxobutan-2-yl)-3-phenyl-5,6,7,8-tetrahydroimidazo[1,5-a]pyrazine-1-carboxamide] |  | − | + |  |  |
| CNC(=O)[C@@H](NC(=O)c1nc(C2CCC(C)CC2)n2c1CN(C)CCC2)C(C)(C)C (stereo partly drawn) [Compound 499, (S)-N-(3,3-dimethyl-1-(methylamino)-1-oxobutan-2-yl)-8-methyl-3-(4-methylcyclohexyl)-6,7,8,9-tetrahydro-5H-imidazo[1,5-a][1,4]diazepine-1-carboxamide] | > 10000 | + |  |  |  |
| CN1CCn2c(-c3ccccc3)nc(C(=O)NC3(CO)CCCC3)c2C1 [Compound 235, N-(1-(hydroxymethyl)cyclopentyl)-7-methyl-3-phenyl-5,6,7,8-tetrahydroimidazo[1,5-a]pyrazine-1-carboxamide] | > 10000 |  |  |  | > 10 |
| CNC(=O)[C@@H](NC(=O)c1nc(-c2ccccc2)n2c1CN(C(C)C)CC2)C(C)(C)C [Compound 85, (S)-N-(3,3-dimethyl-1-(methylamino)-1-oxobutan-2-yl)-7-isopropyl-3-phenyl-5,6,7,8-tetrahydroimidazo[1,5-a]pyrazine-1-carboxamide] | > 10000 | − |  |  |  |
| CNC(=O)[C@@H](NC(=O)c1nc(-c2cc(Cl)c(C)cc2F)n2c1CN(C)CCC2)C(C)(C)C [Compound 357, (S)-3-(5-chloro-2-fluoro-4-methylphenyl)-N-(3,3-dimethyl-1-(methylamino)-1-oxobutan-2-yl)-8-methyl-6,7,8,9-tetrahydro-5H-imidazo[1,5-a][1,4]diazepine-1-carboxamide] | > 10000 |  |  |  | > 10 |
| COC(=O)[C@@H](NC(=O)c1nc(-c2ccc(C)cc2F)n2c1CN(C)CCC2)C(C)(C)C [Compound 469, (S)-methyl 2-(3-(2-fluoro-4-methylphenyl)-8-methyl-6,7,8,9-tetrahydro-5H-imidazo[1,5-a][1,4]diazepine-1-carboxamido)-3,3-dimethylbutanoate] | > 10000 |  |  |  | > 10 |
